According to patent US20030013744A1, “3,4-diaryl thiophenes and analogs thereof having use as anti-inflammatory agents” (G.D. Searle & Co., priority 1993, published 2003):
Where two headings read alike, the source gives them in different places.

Legend:
Murine COX II = biological target: T1, Murine COX II (Mus musculus, UniProt Q05769); test: Assay for COX II activity in vitro (PGE2 ELISA, recombinant enzyme); format: biochemical; settings: read-out: Murine COX II ID50
T1 construct: A 2.0 kb fragment containing the coding region; made in house; host or cells: SF9 insect cells (baculovirus, transfer vector pVL1393)
T1 sequence (Q05769 18-604): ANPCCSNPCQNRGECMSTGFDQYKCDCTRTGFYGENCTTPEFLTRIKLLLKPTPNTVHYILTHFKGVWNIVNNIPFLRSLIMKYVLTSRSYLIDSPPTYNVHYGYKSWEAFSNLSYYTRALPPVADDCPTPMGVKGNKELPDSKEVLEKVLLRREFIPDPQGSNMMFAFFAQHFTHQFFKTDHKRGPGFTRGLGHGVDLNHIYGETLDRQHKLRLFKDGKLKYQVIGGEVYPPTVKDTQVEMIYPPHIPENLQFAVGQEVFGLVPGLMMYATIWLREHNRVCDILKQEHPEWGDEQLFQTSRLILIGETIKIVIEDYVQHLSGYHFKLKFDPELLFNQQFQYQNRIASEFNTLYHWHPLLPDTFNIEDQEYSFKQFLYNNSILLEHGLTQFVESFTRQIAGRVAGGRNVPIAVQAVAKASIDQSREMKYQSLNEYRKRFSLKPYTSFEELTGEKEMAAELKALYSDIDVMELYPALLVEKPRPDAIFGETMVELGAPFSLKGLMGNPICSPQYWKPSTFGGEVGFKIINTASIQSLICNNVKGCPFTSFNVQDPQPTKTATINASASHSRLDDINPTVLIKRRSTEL

[1] = Whole Blood Assay for Thromboxane B2 Activity; format: cell-based; settings: calcium ionophore A23187
Experimental: Whole Blood Assay for Thromboxane B2 Activity:
Thromboxane B2 (TXB2) activity was assayed using an ELISA to detect the TXB2 released. Various concentrations of compounds and standards were prepared by a set of serial dilutions (1:3) in a microtiter plate with ethanol. In U-bottom microtiter plates, 50 μl whole blood (green top heparin), 150 μl RPMI media (JRH Biosciences) and 5 μl compound solution were mixed and preincubated at 37° C. for fifteen minutes prior to the addition 4 μg of the calcium ionophore A23187. Any reaction between the compounds and the cells was stopped after ten minutes at 37° C. by centrifuging the cells at 2000 rpm for ten minutes at 4° C. and transferring 20 μl of the supernatant into 180 μl ELISA enzyme immuno assay buffer. The TXB2 formed was measured by standard ELISA technology (Cayman Chemical). To washed and pre-coated (goat anti-rabbit IgG H&L) microtiter plates, was added 40 μl enzyme immuno assay buffer, 10 μl diluted supernatants, 50 μl […] and 50 μl TXB2 antisera. After covered overnight incubation at room temperature. 200 μl Ellman reagent was added and incubated. The absorbance was read at 405 nm with a 650 nm reference.

Murine COX I = biological target: T2, Murine COX I (Mus musculus, UniProt P22437); test: Assay for COX I activity in vitro (PGE2 ELISA, recombinant enzyme); format: biochemical; settings: read-out: Murine COX I ID50
T2 construct: A 2.0 kb fragment containing the coding region; made in house; host or cells: SF9 insect cells (baculovirus, transfer vector pVL1393)
T2 sequence (P22437 27-602): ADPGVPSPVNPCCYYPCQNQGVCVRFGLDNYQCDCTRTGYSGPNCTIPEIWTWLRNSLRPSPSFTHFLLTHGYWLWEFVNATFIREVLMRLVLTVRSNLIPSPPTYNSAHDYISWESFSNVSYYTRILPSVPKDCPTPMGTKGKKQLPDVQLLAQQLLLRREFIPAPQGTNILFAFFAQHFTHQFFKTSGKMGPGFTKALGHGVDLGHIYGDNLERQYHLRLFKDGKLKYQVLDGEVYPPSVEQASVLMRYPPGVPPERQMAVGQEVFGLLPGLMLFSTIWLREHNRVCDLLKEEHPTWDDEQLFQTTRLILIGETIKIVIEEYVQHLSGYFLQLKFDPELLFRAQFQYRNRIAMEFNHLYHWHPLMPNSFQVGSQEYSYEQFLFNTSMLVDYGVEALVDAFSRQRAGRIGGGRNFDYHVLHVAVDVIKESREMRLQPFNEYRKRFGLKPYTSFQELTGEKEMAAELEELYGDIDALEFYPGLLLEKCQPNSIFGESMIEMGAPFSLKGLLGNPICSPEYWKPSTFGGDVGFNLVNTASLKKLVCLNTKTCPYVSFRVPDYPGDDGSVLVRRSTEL

human COX I = biological target: T3, human COX I (Homo sapiens, UniProt P23219); test: as above; format: biochemical
T3 construct: A 2.0 kb fragment containing the coding region; made in house; host or cells: SF9 insect cells (baculovirus, transfer vector pVL1393)

human COX II = biological target: T4, human COX II (Homo sapiens, UniProt P35354); test: Assay for COX II activity in vitro (PGE2 ELISA, recombinant enzyme); format: biochemical
T4 construct: A 2.0 kb fragment containing the coding region; made in house; host or cells: SF9 insect cells (baculovirus, transfer vector pVL1393)
T4 sequence (P35354 18-604): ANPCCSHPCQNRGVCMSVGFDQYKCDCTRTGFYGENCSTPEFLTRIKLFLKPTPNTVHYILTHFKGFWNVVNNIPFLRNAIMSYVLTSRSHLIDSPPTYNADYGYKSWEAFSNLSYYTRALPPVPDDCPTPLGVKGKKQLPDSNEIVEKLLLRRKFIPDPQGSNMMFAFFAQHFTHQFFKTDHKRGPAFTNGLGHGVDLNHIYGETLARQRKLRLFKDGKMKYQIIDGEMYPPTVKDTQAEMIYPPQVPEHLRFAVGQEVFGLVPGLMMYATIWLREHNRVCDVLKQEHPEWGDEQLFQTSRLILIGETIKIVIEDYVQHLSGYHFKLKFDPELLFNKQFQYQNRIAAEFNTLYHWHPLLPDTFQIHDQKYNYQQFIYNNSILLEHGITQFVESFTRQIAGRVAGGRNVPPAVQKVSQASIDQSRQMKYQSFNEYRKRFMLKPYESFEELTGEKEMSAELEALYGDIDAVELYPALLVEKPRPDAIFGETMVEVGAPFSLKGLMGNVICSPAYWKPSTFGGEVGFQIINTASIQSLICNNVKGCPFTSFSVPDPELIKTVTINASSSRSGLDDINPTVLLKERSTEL

[2] = Gen. Pharmac., 24, 105 (1993); cited from earlier work
[3] = Gen. Pharmac., 24, 105 (1993); cited from earlier work; remark: listed apart in the source
COX II enzyme = biological target: T5, COX II enzyme (Mus musculus, UniProt Q05769); settings: J. Biol. Chem., 268, 6610 (1993); cited from earlier work
T5 sequence (Q05769 18-604): T1 sequence (Q05769 18-604)

T3 sequence (P23219 24-599): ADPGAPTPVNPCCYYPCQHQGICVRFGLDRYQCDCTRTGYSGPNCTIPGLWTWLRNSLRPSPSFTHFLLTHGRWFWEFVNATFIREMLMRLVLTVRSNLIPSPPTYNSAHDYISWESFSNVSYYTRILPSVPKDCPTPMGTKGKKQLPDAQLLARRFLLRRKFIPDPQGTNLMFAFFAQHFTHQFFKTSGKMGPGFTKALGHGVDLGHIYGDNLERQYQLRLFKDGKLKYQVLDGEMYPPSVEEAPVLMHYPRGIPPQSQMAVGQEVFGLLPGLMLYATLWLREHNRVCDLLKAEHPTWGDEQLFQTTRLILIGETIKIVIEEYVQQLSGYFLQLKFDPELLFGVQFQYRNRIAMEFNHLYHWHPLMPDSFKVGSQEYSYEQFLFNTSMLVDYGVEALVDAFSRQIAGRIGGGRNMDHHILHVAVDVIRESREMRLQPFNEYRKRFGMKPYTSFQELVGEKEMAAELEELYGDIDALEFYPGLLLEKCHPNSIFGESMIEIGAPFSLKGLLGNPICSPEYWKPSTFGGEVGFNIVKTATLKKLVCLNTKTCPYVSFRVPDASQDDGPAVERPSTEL

Row | Structure (SMILES) | IC50 (Murine COX II) | IC50 [1] | IC50 (Murine COX I) | other results
1 | NS(=O)(=O)c1ccc(-c2cscc2-c2ccc(F)cc2)cc1 [Example 12, 4-[4-(4-Fluorophenyl)thien-3-yl]benzenesulfonamide] | – | – | – | melting point: 194 to 195 °C
2 | COc1ccc(-c2c(-c3ccc(S(C)(=O)=O)cc3)csc2Br)cc1 [Example 7, 3-(4-Methylsulfonylphenyl)-4-(4-methoxyphenyl)-5-bromothiophene] | < 0.1 µM | < 0.1 µM | < 0.1 µM | –
3 | CS(=O)(=O)c1ccc(-c2cocc2-c2ccc(F)cc2)cc1 [Example 13, 3-(4-Fluorophenyl)-4-(methylsulfonylphenyl)furan] | – | – | – | melting point: 160 to 161 °C; IC50 (human COX I; human COX I enzyme (footnote *), read-out: COX I ID50): > 100 µM; IC50 (human COX II; human COX II enzyme (footnote *), read-out: COX II ID50): 1.9 µM
4 | CS(=O)(=O)c1ccc(-c2cscc2-c2ccccc2)cc1 [Example 10, 3-(4-Methanesulfonylphenyl)-4-phenyl-thiophene] | < 0.1 µM | 7 µM | > 10 µM | –
5 | Cc1ccc(-c2cscc2-c2ccc(S(C)(=O)=O)cc2)cc1 [Example 11, 3-(4-Methanesulfonylphenyl)-4-(4-methylphenyl)thiophene] | < 0.1 µM | 7 µM | > 100 µM | –
6 | CCOC(=O)c1sc(C(=O)O)c(-c2ccc(F)cc2)c1-c1ccc(S(C)(=O)=O)cc1 [Example 8, 2-Ethoxycarbonyl-4-(4-fluorophenyl)-3-(4-methanesulfonylphenyl)-thienyl-5-carboxylic acid] | 5.5 µM | – | > 100 µM | –
7 | CS(=O)(=O)Nc1ccc([N+](=O)[O-])cc1OC1CCCCC1 [N-(2-cyclohexyloxy-4-nitrophenyl)methanesulfonamide] | – | – | – | antiinflammatory activity [2]: antiinflammatory; gastric side effects [3]: lacks gastric side effects
8 | COc1ccc2cc(CC(=O)O)ccc2c1 [6-methoxy-2-napthylacetic acid] | – | – | – | selective inhibition of the COX II enzyme (COX II enzyme): selectively inhibit the COX II enzyme
9 | CS(=O)(=O)c1ccc(-c2c(Br)sc(Br)c2-c2ccc(F)cc2)cc1 [Example 3, 4-(4-Methylsulfonylphenyl)-3-(4-fluorophenyl)-2,5-dibromothiophene] | 1.5 µM | – | – | –
10 | CCOC(=O)c1scc(-c2ccc(S(C)(=O)=O)cc2)c1-c1ccc(F)cc1 [Example 5, Ethyl[4-(4-methylsulfonylphenyl)-3-(4-fluorophenyl)thien-2-yl]carboxylate] | < 0.1 µM | – | > 3 µM | –
11 | CS(=O)(=O)c1ccc(-c2cscc2-c2ccc(F)nc2)cc1 [Example 14] | 0.2 µM | 27 µM | > 10 µM | melting point: 190 to 191 °C (dec.)
12 | CS(=O)(=O)c1ccc(-c2cscc2-c2ccc(F)cc2)cc1 [Example 1, 3-(4-Methylsulfonylphenyl)-4-(4-fluorophenyl)thiophene] | – | 21 µM | – | IC50 (human COX I): > 100 µM; IC50 (human COX II): < 0.1 µM
13 | COc1ccc(-c2cscc2-c2ccc(OC)cc2)cc1 [Example 4, 3,4-Bis(4-methoxyphenyl)thiophene] | 0.8 µM | < 0.1 µM | 0.3 µM | –
14 | CS(=O)(=O)c1ccc(-c2c(C(=O)O)sc(C(=O)O)c2-c2ccc(F)cc2)cc1 [Example 9, 4-(4-Fluorophenyl)-3-(4-methanesulfonylphenyl)thienyl-2,5-dicarboxylic acid] | 4.7 µM | – | > 100 µM | –
15 | CS(=O)(=O)c1ccc(-c2csc(Br)c2-c2ccc(F)cc2)cc1 [Example 2, 4(4-Methylsulfonylphenyl)-3-(4-fluorophenyl)-2-bromothiophene] | – | 0.4 µM | 3.5 µM | –
16 | Cc1cc(F)ccc1-c1cscc1-c1ccc(S(C)(=O)=O)cc1 [Example 15, 3-(4-Methylsulfonylphenyl)-4-(2-methyl-4-fluorophenyl)thiophene] | – | 28 µM | 8.5 µM | melting point: 158 to 160 °C
17 | COc1ccc(-c2cscc2-c2ccc(S(C)(=O)=O)cc2)cc1 [Example 6, 3-(4-Methylsulfonylphenyl)-4-(4-methoxyphenyl)thiophene] | < 0.1 µM | – | < 0.3 µM | –
